Data published in US10881656B2, “HIF inhibitors and use thereof” (The General Hospital Corporation, priority 2008, dated 2021).

Key:
NFkB = assay: TransAM NFkB ELISA; assay type: cell-based, human; conditions: 786-O cells, 5uM, 24 hours
Method: Experiments were performed in triplicate. Error bars represent Standard Error of the Mean (SEM).

[1] = tested on: HIF-2a (HRE-luciferase, 7H4 cells); assay: HRE-luciferase reporter assay in 786-O derived 7H4 cells; assay type: cell-based, human; conditions: 786-O cells, 24 hours
Method: The screen for small molecule inhibitors was performed in the Institute for Chemical and Cellular biology, Harvard Medical School. 7SV or 7H4 cells were plated onto 384-well plates. The next day compounds were added robotically to the medium, to a final concentration of approximately 10 μM. 24 hours later, media was aspirated and Passive Lysis Buffer (Promega) and Luciferase Assay Reagent II (Promega) were added. Luciferase activity was measured with an Analyst plate reader (LJL Biosystems). All experiments were performed in duplicate and the identity of lead compounds was confirmed by mass spectroscopy
Luciferase assays were performed using the Promega's Dual-luciferase Assay Reporter System (Promega, E1910) according to the manufacturer's instructions. Counts obtained from transient transfections were normalized for co-transfected Renilla luciferase. Stable clones were normalized to medium only treated wells.
Functionally validated HRE and control SV40 luciferase reporter constructs were stably introduced into VHL-deficient 786-O cells to generate 7H4 and 7SV lines, respectively (see FIG. 8A). These lines were used to screen five commercial small molecule libraries (NCI Diversity Set, Chembridge, Maybridge, CEREP and Peakdale) and the ICCB Diversity-Oriented Synthesis (DOS) Diversity Set 2 (DDS2) and serine-derived peptidomimetic (SDP1) collections, totaling 58,000 compounds.
786-O cells were untreated (M, for medium only), mock-treated (D, for DMSO) or treated with compounds for two days before assaying for normalized luciferase activity. The resulting dose response curves are shown along with the compound structures in FIGS. 1A-1H).
To validate the connectivity map-derived prediction that PGJ2 is involved in HIF signaling, the inventors treated HRE-luciferase expressing 786-O cells (7H4) and SV40-luciferase expressing control cells (7SV) with increasing doses of PGJ2.

HIF = conditions: published; cited from earlier work
[2] = molecular target: T1, IRP2 binding to Ferritin-L IRE (Homo sapiens, UniProt P48200); assay: Electrophoretic mobility shift assay, Ferritin L IRE probe; conditions: 786-O lysates, EMSA
T1 construct: when expressed in endogenous levels; endogenous in cells; host or cells: 786-O
Method: EMSAs were performed as described previously (Fillebeen et al., 2003). Briefly, 50 μg lysate from 786-O cells treated with medium only, DMSO, or compounds were incubated with 25,000 cpm wild-type or mutant radiolabeled HIF-2a IRE probe for 20 minutes at room temperature before loading onto non-denaturing acrylamide gels. Supershifts were performed identically, save that 0.2 μg control, IRP1 or IRP2 antibodies were also added. Total protein content was estimated by Bradford Assay (BioRad, 500-0006), and even loading for all experiments was confirmed by Western blot for B-Actin.
Inventors discovered that compound 76 increased the residual amount of IRP1 bound to the HIF-2a IRE in hypoxia, although not to the same extent as that observed in normoxic cells. […] Lastly, to further investigate the involvement of IRP2 in HIF-2a IRE, the inventors compared side by side IRP2 binding to HIF-2a and Ferritin-L IRE in 786-O cells, in conditions of normoxia or hypoxia and after treatment with compound 76 or DFO (FIG. 7E). While IRP2 binding was clearly detected on Ferritin IRE, the inventors were not able to detect measurable IRP2 binding on HIF-2a IRE.

[3] = tested on: HIF-2a 5′-UTR Iron-Responsive Element (IRE); assay: Luciferase reporters with HIF-2a 5′-UTR / IRE in 786-O cells; assay type: cell-based, human; conditions: 10 μM, normoxia and hypoxia
[4] = tested on: iron (Fe-(EDHB)3 complex); assay: In vitro iron competition assay; conditions: 0-200 micromolars, absorbance at 500 nm
Method: This assay was performed similarly to that described previously (Wang et al., 2002). Briefly, displacement of iron from ethyl-3,4-dihydroxybenzoate (EDHB) complex was measured as a decrease in absorbance at 500 nm. Ferric iron, prepared as a 5 mM stock solution of FeC13 in 100 mM sodium citrate, was diluted to 25 μM in the presence of 750 μM EDHB. 1 ml aliquots of this solution were then mixed with 0, 25, 50, 100 or 200 micromolars of compounds 40, 41, 76, and 77 as well as EDTA and DFO for controls. […] The self absorbance of compound 41 in a matched solution lacking Fe-(EDHB)3 was subtracted from the A500 value obtained in the presence of the Fe-(EDHB)3 complex.
The inventors next directly tested whether the compounds bind iron by performing a competition assay in which the displacement of iron from ethyl-3,4-dihydroxybenzoate (EDHB), a weakly chelating ester, was measured as a decrease in absorbance at 500 nm. […] In addition, the inventors utilized the Connectivity Map to look for similarities between the induced gene expression signatures of low and high dose DFO and compound treated cells (Lamb et al., 2006). Using this bioinformatic approach, the inventors discovered no significant similarity between the gene expression profile of the compounds and low (chelating) DFO dose, while there was a negative correlation between compound effect and high (HIF stabilizing) DFO dose (see FIG. 13).

T1 sequence (P48200 whole entry): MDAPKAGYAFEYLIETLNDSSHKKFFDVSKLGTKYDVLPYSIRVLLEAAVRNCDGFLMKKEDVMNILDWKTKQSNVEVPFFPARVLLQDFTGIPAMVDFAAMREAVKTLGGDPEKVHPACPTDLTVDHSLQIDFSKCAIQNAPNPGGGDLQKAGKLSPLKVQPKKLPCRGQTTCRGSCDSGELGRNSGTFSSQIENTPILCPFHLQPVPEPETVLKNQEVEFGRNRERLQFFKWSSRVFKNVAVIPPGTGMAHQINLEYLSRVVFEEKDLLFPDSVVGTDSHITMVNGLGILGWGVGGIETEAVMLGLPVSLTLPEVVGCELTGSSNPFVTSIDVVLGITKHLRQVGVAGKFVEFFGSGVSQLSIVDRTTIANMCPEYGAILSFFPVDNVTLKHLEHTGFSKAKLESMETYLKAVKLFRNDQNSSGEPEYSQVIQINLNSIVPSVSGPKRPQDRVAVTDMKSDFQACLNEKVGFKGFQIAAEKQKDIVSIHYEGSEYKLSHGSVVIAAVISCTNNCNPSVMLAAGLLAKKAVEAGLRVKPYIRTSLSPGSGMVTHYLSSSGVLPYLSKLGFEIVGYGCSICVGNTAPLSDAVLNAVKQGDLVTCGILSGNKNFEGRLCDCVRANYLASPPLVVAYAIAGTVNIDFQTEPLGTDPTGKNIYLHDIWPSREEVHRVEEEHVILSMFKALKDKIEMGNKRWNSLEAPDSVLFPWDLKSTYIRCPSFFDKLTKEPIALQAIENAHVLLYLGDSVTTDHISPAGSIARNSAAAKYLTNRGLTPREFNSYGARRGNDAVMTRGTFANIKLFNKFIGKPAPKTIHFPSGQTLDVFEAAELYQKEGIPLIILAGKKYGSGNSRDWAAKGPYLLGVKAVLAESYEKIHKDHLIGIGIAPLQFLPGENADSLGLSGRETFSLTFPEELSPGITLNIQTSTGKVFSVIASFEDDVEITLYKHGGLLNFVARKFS

SMILES	Mechanism of HIF inhibtion (HIF)	Biological Activities (HIF)	other results
Cc1ccc2nc(NCCN)c3ncc(C)n3c2c1 [BMS-345541, reference compound]			basal NFkB activity (NFkB): basal NFkB activity is suppressed; HRE-luciferase activity [1]: did not alter the HRE-luciferase activity
COc1ccc2cc3[n+](cc2c1OC)CCc1cc2c(cc1-3)OCO2 [Berberine]	HIF degradation		
CC(C)(c1ccc(O)cc1)c1ccc(O)cc1 [Bisphenol]	HIF degradation		
COc1cc2c(cc1O)CC[C@@H]1[C@@H]2CC[C@]2(C)[C@@H](O)CC[C@@H]12 [Compound 2-ME2]	Post-transcriptional	Inhibits HUVEC	
CC(=O)N(O)CCCCCNC(=O)CCC(=O)N(O)CCCCCNC(=O)CCC(=O)N(O)CCCCCN [DFO, reference compound]			binding of IRP2 to Ferritin-L IRE [2]: slightly enhanced; HIF-2a IRE luciferase reporter activity [3]: repressed reporter activity and diminished the effect of hypoxia; displacement of iron from EDHB complex (iron chelation) [4]: readily displaced iron from EDHB
O=C(O)CN(CCN(CC(=O)O)CC(=O)O)CC(=O)O [EDTA, reference compound]			displacement of iron from EDHB complex (iron chelation) [4]: readily displaced iron from EDHB
COc1cc([C@@H]2c3cc4c(cc3[C@@H](Nc3ccc([N+](=O)[O-])cc3)[C@H]3COC(=O)[C@H]23)OCO4)cc(OC)c1O [GL331]	Protein levels	Inhibits HUVEC	
CCC(C)SSc1ncc[nH]1 (stereo not drawn) [PX-12]		Tumor suppression	
OCc1ccc(-c2nn(Cc3ccccc3)c3ccccc23)o1 [YC-1]	HIF protein levels	VEGF decrease/tumor	
